Molecular target: JNK3 kinase (Homo sapiens, UniProt P53779)
Experiment: JNK3 SPA assay (phosphorylation of GST-c-Jun)
Type: biochemical
Conditions: 3.33 μM ATP, [γ-33P] ATP, GST-c-Jun substrate, 30 minutes at room temperature
Experimental: JNK1, JNK2, JNK3—SPA Assay
• 1. Compound is dissolved in DMSO to a convenient concentration and this is diluted in 10% DMSO to a five times concentrate of the desired starting concentration (frequently 1:100). • 2. 10 μl of 500 mM EDTA is added to alternative wells of the Opti-plate row, which will receive kinase reaction plus DMSO. This creates the negative control. • 3. For the JNK2 and JNK3 assay, compounds are prepared in six 2-fold dilutions with water and each concentration is tested in duplicate. For the JNK1 assay compounds are prepared in four 5-fold dilutions with water which are tested in triplicate. Controls are treated identically. • 4. 20 μl per well of each compound concentration is transferred to an Opti-plate, in duplicate. • 5. 30 μl (JNK2/3 SPA) or 50 μl (JNK1 SPA) of substrate solution (25 mM HEPES pH 7.5, 10 mM magnesium acetate with 3.33 μM ATP (JNK2/3) or 2 μM ATP (JNK1), approximately 7.5 kBq [γ-^33P] ATP, GST-c-Jun, in water) is added to each well. • 6. 50 μl (JNK2/3 SPA) or 30 μl (JNK1 SPA) of kinase solution (JNK in 25 mM HEPES pH 7.5, 10 mM Mg Acetate) is added to each well.
• 7. The plate is incubated for 30 minutes at room temperature. • 8. 100 μl of bead/stop solution is added to each well (5 mg/ml glutathione-PVT-SPA beads, 40 mM ATP in PBS). • 9. Plates are sealed and incubated for 30 minutes at room temperature, centrifuged for 10 minutes at 2500 g and counted. • 10. The IC50 values are calculated as the concentration of the compound being tested at which the phosphorylation of c-Jun is decreased to 50% of the control value.

JNK3 kinase, sequence (P53779 whole entry): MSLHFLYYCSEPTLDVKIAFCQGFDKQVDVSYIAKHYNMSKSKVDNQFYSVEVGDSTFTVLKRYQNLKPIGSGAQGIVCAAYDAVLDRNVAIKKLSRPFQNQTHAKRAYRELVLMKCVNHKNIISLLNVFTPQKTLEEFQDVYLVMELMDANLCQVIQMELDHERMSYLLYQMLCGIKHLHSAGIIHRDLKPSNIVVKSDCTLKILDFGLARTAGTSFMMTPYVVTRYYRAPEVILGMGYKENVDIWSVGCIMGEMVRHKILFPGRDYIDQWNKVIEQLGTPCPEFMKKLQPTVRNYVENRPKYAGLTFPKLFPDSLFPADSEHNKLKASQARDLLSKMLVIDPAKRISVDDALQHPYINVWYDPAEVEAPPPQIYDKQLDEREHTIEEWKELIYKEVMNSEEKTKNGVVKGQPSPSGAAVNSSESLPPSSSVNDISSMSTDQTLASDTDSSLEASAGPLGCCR

IC50 [nM]	Compound
< 500	CCCNC(=O)C#Cc1c[nH]c2ncc(-c3ccccc3Oc3ccccc3)cc12
< 500	N#Cc1c[nH]c2ncc(-c3ccccc3F)cc12
< 500	C#Cc1c[nH]c2ncc(-c3ccc(N(C)C)cc3)cc12
< 500	CN(C)c1ccc(-c2cnc3[nH]cc(C#N)c3c2)cc1

From patent publication US7612086B2, “JNK inhibitors” (Eisai R & D Management Co. Ltd., priority 2003, dated 2009)
